From paper PMC12624432, “Development of Novel ^18F‑Labeled Selective Orexin‑2 Receptor Radioligands for Positron Emission Tomography” (ACS Pharmacology & Translational Science, 2025)
pKi: −log10 of the molar value. “Also recorded” adds a separate entry of the source.

Columns and labels:
OX2R [1] = assay: OX2R binding affinity; conditions: for selectivity over OX1R: OX2R over OX1R; for selectivity (OX2R/OX1R): ratio of Ki OX1 to Ki OX2
[2] = In vitro tracer stability in saline; assay type: physicochemical; conditions: over the studied time intervals
Description: (§1) [^18F]1 and [^18F]2 were obtained in 24% and 53% decay-corrected radiochemical yields (RCYs) with molar activities of 53 GBq/μmol and 38 GBq/μmol, respectively. […] Furthermore, in vitro stability tests of [^18F]1 and [^18F]2 were conducted in saline, serums, and liver microsomes across species.

[3] = In vitro tracer stability in serum; assay type: in vitro ADME; conditions: mouse, rat, nonhuman primate and human serum
Description: as §1

[4] = In vitro tracer stability in liver microsomes; assay type: in vitro ADME; conditions: mouse, rat and human liver microsomes
Description: as §1
Figure S3. Stability of [ 18F]1 in liver microsomes. (A) Stability of [ 18F]1 in mouse liver microsome; (B) Stability of [18F]1 in rat liver microsome; (C) Stability of [ 18F]1 in human […]
Figure S4. Stability of [ 18F]2 in liver microsomes. (A) Stability of [ 18F]2 in mouse liver microsome; (B) Stability of [18F]2 in rat liver microsome; (C) Stability of [ 18F]2 in human […]
Figure S5. TACs of [ 18F]1 in the whole rat brain under baseline and blocking (elacridar, elacridar and EMPA, or elacridar and LSN2424100; elacridar in 5 mg/kg, EMPA and LSN2424100 in 1 mg/kg) conditions; All data are mean ± SD, n ≥ 3. […]

[5] = Radiometabolic analysis in plasma and brain; assay type: in vivo, SD rats; conditions: rat brain homogenate, 30 min postinjection
Description: According to a previous report, SD rats were euthanized 30 min after the administration of [^18F]1 or [^18F]2. The brain was collected, homogenized with cold MeCN and PBS, and centrifuged (14,000g, 5 min) at 4 °C. The supernatant was analyzed by HPLC, and both tracers and radiometabolites were collected and measured by a γ counter. The same procedure was conducted for plasma.

OX2R [6] = target: OX2R; parameters: method as in earlier work; conditions: no binding method in paper; compounds previously reported; read-out: K i/OX2; cited from earlier work
OX2R [7] = target: T1, OX2R (Rattus norvegicus, UniProt P56719); assay: In vitro autoradiography on rat brain sections; assay type: binding; parameters: from tissue; host or cells: rat brain sections; conditions: blocking with EMPA, LSN2424100 or authentic reference compound, 10 μM, across regions
T1 sequence (P56719 1-460): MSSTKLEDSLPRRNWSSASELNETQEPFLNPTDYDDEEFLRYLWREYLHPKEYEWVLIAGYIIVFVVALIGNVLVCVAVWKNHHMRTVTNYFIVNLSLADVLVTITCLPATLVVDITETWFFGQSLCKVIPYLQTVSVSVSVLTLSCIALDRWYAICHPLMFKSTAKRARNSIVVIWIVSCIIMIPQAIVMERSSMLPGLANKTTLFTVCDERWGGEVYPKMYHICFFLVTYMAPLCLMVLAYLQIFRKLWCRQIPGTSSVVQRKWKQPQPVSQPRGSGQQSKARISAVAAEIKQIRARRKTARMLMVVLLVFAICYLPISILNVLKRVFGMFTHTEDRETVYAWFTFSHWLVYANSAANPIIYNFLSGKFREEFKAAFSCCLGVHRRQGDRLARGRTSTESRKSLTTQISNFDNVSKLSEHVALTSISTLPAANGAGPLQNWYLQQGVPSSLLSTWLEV
Description: According to a previous report, rat brain sections were incubated with Tris-HCl buffer (50 mM) and then with [^18F]1 or [^18F]2. In the blocking study, brain sections were incubated with the tracer in the presence of 1, 2, EMPA, or LSN2424100 (10 μM). Then the brain sections were washed with the cold buffer, dried, exposed to an imaging screen, and scanned with a Typhoon biomolecular imager.

OX2R [8] = target: T1, OX2R; assay: Dynamic PET imaging in the rat brain; assay type: in vivo, Sprague–Dawley rats; parameters: from tissue; host or cells: brain of living Sprague-Dawley rats; conditions: for tracer uptake reduction under blocking: EMPA or LSN2424100 1 mg/kg after elacridar pretreatment, all brain regions; for peak SUV in brain: baseline, 0.5 min postinjection; for increase in SUV0–60 min with elacridar: co-administration of elacridar 5 mg/kg (P-gp/BCRP inhibitor), across brain regions
Description: PET imaging was performed according to previous reports , with minor modifications. [^18F]1 or [^18F]2 (40 μCi) was administered via the tail vein of SD rats, and dynamic scans were performed with a G8 PET scanner (Sofie) for 60 min. In the blocking study, elacridar (5 mg/kg) and OX2R antagonist (EMPA or LSN2424100, 1 mg/kg) were injected at 20 and 10 min before the administration of the tracer, respectively.

Experimental log D = assay type: physicochemical
Excerpt: 1 Representative Pharmacological and Physicochemical Properties of 1 and 2 | column: compound 1; compound 2

sigma-2 = sigma-2 (Homo sapiens, UniProt Q5BJF2); assay: Off-target binding, sigma-2; conditions: read-out: K i sigma-2
Description: (§2) Target selectivity over OX1R exceeded 600-fold for both compounds, satisfying a key prerequisite for selective OX2R imaging. […] CNS penetration was further predicted using Percepta, yielding log BB values of −0.14 and −0.36 for compounds 1 and 2, respectively, well above the empirical threshold for BBB permeability (log BB > −1). Additionally, off-target binding screening was conducted for compounds 1 and 2 toward 59 major CNS targets (Figures S1 and S2).
(§3) 1. Supporting Figures and Tables
(§4) Figure S1. Off-target pharmacological evaluation of compound 1. Initial screening of 59 major CNS targets at a concentration of 1 at 10 μM, including common GPCRs, enzymes, ion channels, and transporters. All data are mean ± SD (n ≥ 3).
(§5) Figure S2. Off-target pharmacological evaluation of compound 2. Initial screening of 59 major CNS targets at a concentration of 2 at 10 μM, including common GPCRs, enzymes, […]

NR2B receptors = NR2B receptors (Homo sapiens, UniProt Q05586+Q13224); assay: Off-target binding, NR2B; conditions: read-out: K i NR2B
Description: as §2, §3, §4, §5

[9] = test system: 59 major CNS targets (GPCRs, enzymes, ion channels, transporters); assay: Off-target binding screening of 59 major CNS targets; conditions: 10 μM; significant = > 50%; except sigma 2 (and NR2B for 1)
Description: as §2, §3, §4, §5

OX1R = target: OX1R; parameters: method as in earlier work; conditions: no binding method in paper; compounds previously reported; read-out: K i/OX1; cited from earlier work
OX2R [10] = test system: OX2R; parameters: method as in not given; conditions: introduction, literature statement; ref not given; cited from earlier work

Chain of sigma-2 (Q5BJF2 whole entry): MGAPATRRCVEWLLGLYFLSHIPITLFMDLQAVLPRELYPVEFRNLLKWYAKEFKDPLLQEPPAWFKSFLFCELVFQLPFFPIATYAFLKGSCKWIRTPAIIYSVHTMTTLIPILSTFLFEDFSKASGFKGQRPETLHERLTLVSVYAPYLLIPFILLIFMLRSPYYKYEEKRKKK
Chain of NR2B receptors (Q13224 27-1484, other chains not shown): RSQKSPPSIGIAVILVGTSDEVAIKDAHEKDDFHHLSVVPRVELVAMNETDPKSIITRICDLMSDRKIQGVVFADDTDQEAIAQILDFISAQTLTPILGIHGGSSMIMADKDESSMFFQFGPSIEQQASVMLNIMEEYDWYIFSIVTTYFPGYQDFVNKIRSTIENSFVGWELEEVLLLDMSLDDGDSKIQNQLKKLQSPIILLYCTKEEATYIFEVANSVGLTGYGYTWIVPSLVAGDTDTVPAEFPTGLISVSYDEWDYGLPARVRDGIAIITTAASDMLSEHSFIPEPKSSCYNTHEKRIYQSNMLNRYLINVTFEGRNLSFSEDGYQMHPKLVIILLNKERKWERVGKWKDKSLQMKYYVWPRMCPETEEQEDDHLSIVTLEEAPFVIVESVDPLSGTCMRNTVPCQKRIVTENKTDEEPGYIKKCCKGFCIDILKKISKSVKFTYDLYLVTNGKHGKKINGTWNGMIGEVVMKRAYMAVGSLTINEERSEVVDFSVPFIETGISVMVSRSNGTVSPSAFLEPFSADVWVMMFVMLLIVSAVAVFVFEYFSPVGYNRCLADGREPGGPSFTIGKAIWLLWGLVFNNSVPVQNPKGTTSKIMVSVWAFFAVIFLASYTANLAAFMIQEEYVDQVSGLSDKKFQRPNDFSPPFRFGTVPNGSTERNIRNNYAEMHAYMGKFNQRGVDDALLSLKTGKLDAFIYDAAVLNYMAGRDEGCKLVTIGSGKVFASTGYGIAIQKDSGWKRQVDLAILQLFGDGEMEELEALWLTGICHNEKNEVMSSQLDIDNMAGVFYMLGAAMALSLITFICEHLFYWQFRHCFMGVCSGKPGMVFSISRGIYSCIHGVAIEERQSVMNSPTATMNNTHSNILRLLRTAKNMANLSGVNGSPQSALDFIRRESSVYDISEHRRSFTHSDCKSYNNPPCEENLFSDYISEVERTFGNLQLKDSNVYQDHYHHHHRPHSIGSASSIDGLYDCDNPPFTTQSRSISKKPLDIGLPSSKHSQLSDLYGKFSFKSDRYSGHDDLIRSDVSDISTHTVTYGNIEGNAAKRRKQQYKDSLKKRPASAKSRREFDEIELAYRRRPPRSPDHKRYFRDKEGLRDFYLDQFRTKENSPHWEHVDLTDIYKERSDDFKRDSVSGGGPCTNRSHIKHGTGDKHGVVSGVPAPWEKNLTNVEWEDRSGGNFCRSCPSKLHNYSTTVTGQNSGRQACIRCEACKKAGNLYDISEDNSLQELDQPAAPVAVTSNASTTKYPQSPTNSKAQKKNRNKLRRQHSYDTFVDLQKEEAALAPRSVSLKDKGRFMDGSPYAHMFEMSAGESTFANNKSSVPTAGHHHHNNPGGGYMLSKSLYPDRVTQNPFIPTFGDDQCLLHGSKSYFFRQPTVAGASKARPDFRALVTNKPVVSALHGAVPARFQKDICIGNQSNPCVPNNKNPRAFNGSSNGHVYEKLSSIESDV

| Molecule | selectivity over OX1R (OX2R [1]) | radiometabolites in saline (stability) [2] | radiometabolites in serum (stability) [3] | radiometabolites in liver microsomes (stability) [4] | intact parent tracer in brain [5] | pKi (OX2R [6]) | autoradiography signal reduction under blocking (OX2R [7]) | tracer uptake reduction under blocking (OX2R [8]) | peak SUV in brain (OX2R [8]) | increase in SUV0–60 min with elacridar (OX2R [8]) | selectivity (OX2R/OX1R) (OX2R [1]) | logD (Experimental log D) | pKi (sigma-2) | pKi (NR2B receptors) | off-target binding toward 59 major CNS targets [9] | pKi (OX1R) | selectivity for OX2R (OX2R [10]) |
| --- | --- | --- | --- | --- | --- | --- | --- | --- | --- | --- | --- | --- | --- | --- | --- | --- | --- |
| Cc1c(C#N)ccnc1O[C@@H]1CC[C@@H](C)N(C(=O)c2cc([18F])ccc2-c2nccs2)C1 [[^18F]1] | > 600 fold | No appreciable radiometabolites were detected | No appreciable radiometabolites were detected | No appreciable radiometabolites were detected | ca. 90% | 10.00 | 54–84% | 40–43% | 2.1 | > 100% | – | – | – | – | – | – | – |
| CC1CCC(Oc2cc(C#N)ccn2)CN1C(=O)c1cc([18F])ccc1-c1ncccn1 (stereo not drawn) [[^18F]2] | > 600 fold | No appreciable radiometabolites were detected | No appreciable radiometabolites were detected | No appreciable radiometabolites were detected | ca. 90% | 9.00 | 51–71% | 23–46% | 1.8 | > 100% | – | – | – | – | – | – | – |
| Cc1c(C#N)ccnc1O[C@@H]1CC[C@@H](C)N(C(=O)c2cc(F)ccc2-c2nccs2)C1 [compound 1, 2-(((3R,6R)-1-(5-Fluoro-2-(thiazol-2-yl)benzoyl)-6-methylpiperidin-3-yl)oxy)-3-methylisonicotinonitrile] | exceeded 600 fold | – | – | – | – | 10.00 | – | – | – | – | 890 | 3.43 | 5.57 | 5.02 | No off-target activity was observed; also recorded: No significant off-target | 7.05 | – |
| C[C@@H]1CC[C@@H](Oc2cc(C#N)ccn2)CN1C(=O)c1cc(F)ccc1-c1ncccn1 [compound 2, 2-(((3R,6R)-1-(5-Fluoro-2-(pyrimidin-2-yl)benzoyl)-6-methylpiperidin-3-yl)oxy)isonicotinonitrile] | exceeded 600 fold | – | – | – | – | 9.00 | – | – | – | – | 658 | 2.54 | 5.33 | – | No off-target activity was observed; also recorded: No significant off-target | 6.18 | – |
| orexin B: endogenous neuropeptide ligand of the orexin receptors, selective for OX2R | – | – | – | – | – | – | – | – | – | – | – | – | – | – | – | – | > 10 fold |
